Like-named read-outs stand apart in the source and are kept apart here.
Target: T1, human Kv 1.5 channel (hKv 1.5) (Homo sapiens, UniProt P22460)
T1 construct: expressed in transfected cells
Assay: Ultrarapid potassium current (IKur), whole-cell patch-clamp in HEK 293-hKv 1.5 cells
Assay type: cell-based
Source text: The cardiac action potential is the basic electrical unit of excitable cardiac cells and represents the activity of several types of ion channels responsible for the various phases of the action potential. Different types of action potentials correspond to different cardiac regions, thus allowing sequential and coordinated activity in these regions. For this reason, Kv 1.5 potassium channels, coded by the KCNA5 gene, are expressed only in auricle tissue and are responsible for the ultrarapid potassium current (IKur) which acts in the repolarization of the auricular action potential. This highly localized expression of Kv 1.5 is in fact a target of choice in the treatment of auricular fibrillation, a pathology in which changes in auricular action potentials are observed.
Thus, the effects of DHA and EPA on IKur were studied. For this purpose, the human isoform of the Kv 1.5 channel (hKv 1.5) was transfected in a stable manner in HEK 293 (human embryonic kidney) cells and the current resulting from the activity of these channels was studied using a whole-cell patch-clamp technique.
HEK 293-hKv 1.5 cells are grown under standard conditions (37° C., incubator at […] and 5% CO2) in Falcon dishes up to 80% confluence. They are then removed and cultured in 35 mm petri dishes containing the following culture medium: DMEM (Invitrogen); 10% fetal bovine serum (Invitrogen); a mixture of 100 U/ml penicillin, 100 μg/ml streptomycin and 0.25 mg/ml glutamine (Invitrogen); and 1.25 mg/ml of Geneticin® as a selective antibiotic.
IKur is studied using the whole-cell patch-clamp technique at ambient temperature (19-22° C.). The pipette medium contains: 125 mM K-aspartate, 20 mM KCl, 10 mM EGTA, 5 mM HEPES, 5 mM Mg-ATP, 1 mM MgCl2, pH 7.3 (KOH). The extracellular medium contains: 140 mM NaCl, 20 mM HEPES, 5 mM D(+)-glucose, 5 mM KCl, 2 mM CaCl2, 1 mM MgCl2, pH 7.4 (NaOH).
IKur is induced every 15 seconds by 300 ms, +60 mV depolarizing pulses from a −80 mV holding potential, followed by −50 mV repolarization. The amplitude of the current peak is established from the maximum current obtained during the first 100 ms of the depolarizing pulse. The amplitude of the current at the end of the pulse is determined during the last 20 ms of the depolarizing pulse.
DHA and EPA are supplied by Sigma. Stock solutions (10 mM) are prepared in ethanol and the final concentration of solvent is 0.25%.

T1 sequence (P22460 whole entry): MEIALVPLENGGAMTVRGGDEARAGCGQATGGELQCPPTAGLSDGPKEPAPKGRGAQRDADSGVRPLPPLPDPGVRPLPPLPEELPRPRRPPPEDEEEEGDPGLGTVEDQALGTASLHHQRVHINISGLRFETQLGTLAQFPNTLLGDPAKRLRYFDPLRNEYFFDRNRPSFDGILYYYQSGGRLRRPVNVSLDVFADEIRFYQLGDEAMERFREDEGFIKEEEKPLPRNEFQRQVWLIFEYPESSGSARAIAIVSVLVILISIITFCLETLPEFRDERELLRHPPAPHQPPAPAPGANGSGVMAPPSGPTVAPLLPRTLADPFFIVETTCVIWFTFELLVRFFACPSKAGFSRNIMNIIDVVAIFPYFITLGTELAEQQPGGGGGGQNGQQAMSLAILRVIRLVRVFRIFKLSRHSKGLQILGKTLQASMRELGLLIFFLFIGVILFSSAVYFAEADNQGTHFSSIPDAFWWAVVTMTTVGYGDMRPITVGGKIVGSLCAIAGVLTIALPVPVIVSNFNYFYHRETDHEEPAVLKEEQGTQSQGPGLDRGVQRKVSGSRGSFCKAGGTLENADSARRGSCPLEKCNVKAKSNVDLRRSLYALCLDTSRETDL

CC/C=C\C/C=C\C/C=C\C/C=C\C/C=C\C/C=C\CCC(=O)O [DHA, docosahexaenoic acid]
inhibition at 1 µM (1 μM, HEK 293-hKv 1.5, +60 mV pulse, max current in first 100 ms, read-out: Percent inhibition of Peak IKur, Mean): 8.2%
inhibition at 1 µM (1 μM, HEK 293-hKv 1.5, last 20 ms of 300 ms depolarizing pulse, read-out: Percent inhibition of End of pulse IKur, Mean): 10.1%
inhibition at 3.2 µM (3.2 μM, HEK 293-hKv 1.5, +60 mV pulse, max current in first 100 ms, read-out: Percent inhibition of Peak IKur, Mean): 10.9%
inhibition at 3.2 µM (3.2 μM, HEK 293-hKv 1.5, last 20 ms of 300 ms depolarizing pulse, read-out: Percent inhibition of End of pulse IKur, Mean): 14.5%
inhibition at 5.6 µM (HEK 293-hKv 1.5, +60 mV pulse, max current in first 100 ms, read-out: Percent inhibition of Peak IKur, Mean): 15.4%
inhibition at 5.6 µM (HEK 293-hKv 1.5, last 20 ms of 300 ms depolarizing pulse, read-out: Percent inhibition of End of pulse IKur, Mean): 33.7%
inhibition at 10 µM (10 μM, HEK 293-hKv 1.5, +60 mV pulse, max current in first 100 ms, read-out: Percent inhibition of Peak IKur, Mean): 22.6%
inhibition at 10 µM (10 μM, HEK 293-hKv 1.5, last 20 ms of 300 ms depolarizing pulse, read-out: Percent inhibition of End of pulse IKur, Mean): 78%
inhibition at 25 µM (25 μM, HEK 293-hKv 1.5, +60 mV pulse, max current in first 100 ms, read-out: Percent inhibition of Peak IKur, Mean): 58.1 ± 13.6%
inhibition at 25 µM (25 μM, HEK 293-hKv 1.5, last 20 ms of 300 ms depolarizing pulse, read-out: Percent inhibition of End of pulse IKur, Mean): 86.5 ± 3.4%

CC/C=C\C/C=C\C/C=C\C/C=C\C/C=C\CCCC(=O)O [EPA]
Percent inhibition of Peak IKur, Mean (1 μM, HEK 293-hKv 1.5, +60 mV pulse, max current in first 100 ms): 14.6%
Percent inhibition of End of pulse IKur, Mean (1 μM, HEK 293-hKv 1.5, last 20 ms of 300 ms depolarizing pulse): 14.9%
Percent inhibition of Peak IKur, Mean (3.2 μM, HEK 293-hKv 1.5, +60 mV pulse, max current in first 100 ms): 16.1%
Percent inhibition of End of pulse IKur, Mean (3.2 μM, HEK 293-hKv 1.5, last 20 ms of 300 ms depolarizing pulse): 19.9%
Percent inhibition of Peak IKur, Mean (10 μM, HEK 293-hKv 1.5, +60 mV pulse, max current in first 100 ms): 17.5±6.4%
Percent inhibition of End of pulse IKur, Mean (10 μM, HEK 293-hKv 1.5, last 20 ms of 300 ms depolarizing pulse): 36.6%
Percent inhibition of Peak IKur, Mean (25 μM, HEK 293-hKv 1.5, +60 mV pulse, max current in first 100 ms): 5.4%
Percent inhibition of End of pulse IKur, Mean (25 μM, HEK 293-hKv 1.5, last 20 ms of 300 ms depolarizing pulse): 61.6±7.3%
